Assay results from US20110045083A1, “USE LARCH WOOD FOR TREATING INFLAMMATION” (priority 2007, published 2011).

System: 5-LOX mediated LT biosynthesis
Assay: LT biosynthesis inhibition assay in activated neutrophile granulocytes, LTB4 EIA
Assay type: cell-based, human
Details: for IC50 / inhibition at 50 µM: Homo sapiens; for inhibition at 50 µM: screening concentration 50 μM
Experimental: 1.) LT biosynthesis inhibition assay
The assay was performed as described in [Michael Adams, Olaf Kunert, Ernst Haslinger, Rudolf Bauer: Inhibition of Leukotriene Biosynthesis by Quinolone Alkaloids from the Fruits of Evodia Rutaecarpa; Planta med. 2004 (70): 904-908] with some modifications.
Principle: Activated neutrophile granulocytes with 5-LOX activity are incubated with a defined concentration of test sample and arachidonic acid. After stopping the enzymatic reaction by addition of formic acid and centrifugation to remove cellular fragments, the produced LTB4 is quantified in the supernatant by means of an LTB4 EIA kit.
Isolation of human neutrophile granulocytes: 30 ml of venous human blood from healthy voluntary donors are collected with a Vacutainer™ (BD, Plymouth, UK) system containing a 0.219 M pre-analytical citric acid solution. The blood is immediately transferred to a falcon tube containing 20 ml of sedimentation solution (1% NaCl, 6% dextran T-500) and left to separate for 60 min at 4° C. While most of the dense erythrocytes sink into the dextran layer, the lighter blood fractions remain in the upper layer which is then removed and centrifuged at 1600 rpm (4° C., 10 min) to concentrate the leukocytes. The plasma supernatant is discarded, the pellet is resuspended in 10 ml of a wash buffer (10% CaCl2.2H2O p.a.; 0.1% anhydrous d-glucose; 0.2% MgCl2.6H2O; 0.04% KCl; 1.75% TRIS p.a.; with the pH adjusted to 7.6 with 1N HCl). After centrifugation at 1400 rpm (4° C., 10 min) and removal of the supernatant the resulting pellet is resuspended in 10 ml of a hypotonic lysis buffer (0.17% NH4Cl; 0.2% TRIS; pH 7.2) and gently shaken for 5 min at room temperature to destroy remaining erythrocytes. The suspension is submitted to another centrifugation at 1400 rpm (4° C., 5 min). The pellet is resuspended in 10 ml of wash buffer and then centrifuged at 1400 rpm (4° C., 15 min). The resulting pellet which now mainly contains neutrophile granulocytes is resuspended in 2 ml of TRIS buffer (1.75% TRIS p.a., 0.9% NaCl, pH 7.4), tested for vitality, quantified and then diluted to a cell concentration of 4500 cells/ml with TRIS buffer.
Cell vitality test: 50 μl of cell suspension and 10 μl of trypan blue solution (0.4%) (Sigma Chemical Co. Steinheim, Germany) are mixed on a glass object carrier and examined with a light microscope at 1000 fold magnification. Dead cells appear larger and darker due to absorption of trypan blue. The vitality of the cells must be >95%.
Determination of cell concentration: 10 μl of granulocyte cell suspension are dyed using 990 μl aqueous TURKS solution (Merck) and quantified in a “Neubauer” chamber (Assistent, Germany).
Sample preparation: samples are dissolved in an appropriate amount of ethanol p.a. to be added to the test mixture resulting in screening concentrations of 50 μM for pure compounds and 20 μg/ml for crude. The commercially available 5-LOX inhibitor zileuton (Sequoia Research Products Ltd., UK) is used as a positive control at a concentration of 10 μM representing its IC50 in this test system.
Incubation procedure: The incubation mixture in a 96-well flat bottom microtitre plate (Bibby Sterilin, Staffordshire, UK) consists of 265 μl leukocyte suspension, with 75.5 μM CaCl2, 0.152 μM […] (ETYA) as an inhibitor of the 12-LOX pathway, 0.642 μM Ca ionophore A23187 and 4.43 μM arachidonic acid, the substrate of the 5-LOX pathway, along with 5 μl of each test solution or 5 μl of EtOH p.a. in control wells. After incubation for 10 min at 37° C. in darkness, the reaction is stopped by addition of 20 μl of 10% formic acid. The microtitre plate is centrifuged for 15 min at 1400 rpm to separate free LTB4 from cellular particles before the supernatant is diluted 40 fold in EIA buffer and applied to a competitive LTB4 EIA kit (Assay Designs Inc.).
LTB4 EIA: The plate is incubated for 2 hours at room temperature on an orbital shaker. […]

IC50 [µM]	IC50 LT assay	SMILES	inhibition at 50 µM [%]
44.6	–	CC(C)c1ccc2c(c1)CCC1C(C)(C(=O)O)CCCC21C (stereo not shown) [Dehydroabietic acid]	47.9 ± 8.4
10.9	–	CC(C)c1ccc2c(c1)CCC1C(C)(CO)CCCC21C (stereo not shown) [Dehydroabietinol]	94.5 ± 1.4
10.2	–	C=C[C@@]1(C)CC[C@H]2C(=CC[C@@H]3[C@]2(C)CCC[C@@]3(C)C(=O)O)C1 [Isopimaric acid]	98.1 ± 0.5
> 125	inactive	C=CC(C)(O)CCC1C(=C)CC(O)C2C(C)(C)CCCC12C (stereo not shown) [Larixol]	32.7 ± 5
10.4	–	C=CC(C)(O)CCC1C(=C)CC(OC(C)=O)C2C(C)(C)CCCC12C (stereo not shown) [Larixyl acetate]	98.1 ± 0.1

SMILES	IC50 [µM]	IC50 LT assay	inhibition at 50 µM [%]
CC(C)C1=CC2=C(CC1)C1(C)CCCC(C)(C(=O)O)C1CC2 (stereo not shown) [Palustric acid]	17.8	–	66.7 ± 3.1
